Converted amounts (≈) assume the structure as drawn. The source made the active and inactive calls. The rule behind the calls is not given here.
Tests used:
Tubulin (Homo sapiens) [1] = biological target: T1, Tubulin (Homo sapiens) (UniProt P68371+Q9H4B7+P0DPH7+P68366+Q13509+Q71U36+P04350+Q3ZCM7+P07437+P68363+Q9BQE3+Q6PEY2+Q13885+Q9BVA1+Q9BUF5); assay: Inhibition of tubulin polymerization at 100 uM after 30 mins; type: protein-complex assay
P388 = assay: Cytotoxicity against mouse P388 cells; type: functional, cell-based
Tubulin (Homo sapiens) [2] = biological target: T1, Tubulin (Homo sapiens); assay: Inhibition of tubulin polymerization at 200 uM after 30 mins; type: protein-complex assay

CO[C@@H]1c2cc(C(C)C)c(O)cc2[C@@]2(C)CCCC(C)(C)[C@@H]2[C@H]1O [TAXODISTINE B]
inhibition (Tubulin (Homo sapiens) [1]): 90% | IC50 (P388): 6.5 µg/mL (≈ 19.5 µM)

CC(C)C1=CC2=CC(=O)[C@H]3C(C)(C)CCC[C@]3(C)C2=C(O)C1=O
inhibition (Tubulin (Homo sapiens) [1]): 45%

CO[C@@H]1c2cc(C(C)C)c(O)c(O)c2[C@@]2(C)CCCC(C)(C)[C@@H]2[C@H]1O [TAXODISTINE A]
IC50 (P388): 0.43 µg/mL (≈ 1.23 µM) | Activity (Tubulin (Homo sapiens) [2]): inactive
